According to PMC6272646, “Understanding the Physicochemical Properties of Mitragynine, a Principal Alkaloid of Mitragyna speciosa, for Preclinical Evaluation” (Molecules, 2015):
Like-named read-outs stand apart in the source and are kept apart here.

How the values were obtained:
[1] = pKa determination, microplate spectrophotometer method; type: physicochemical; conditions: aqueous buffer
Text: The instruments employed were UV spectrophotometer 8453 UV-Vis Diode Array (Agilent, Santa Clara, CA, USA), and Multiskan* GO Microplate Spectrophotometer (Thermo Scientific, Waltham, MA, USA). Data were captured using the Thermo Scientific SkanIt Software (Thermo Scientific, Version 3.2). Buffer Maker Software (version 1.0.1.55, BPP Marcin Borkowski, Marki, Poland,) was used for preparation of buffers with constant ionic strength for pKa determination. The pH-meter employed throughout the study was a PH 211 Hanna (Padova, Italy) equipped with a combined glass electrode.
pKa determination was carried out using conventional UV and microplate spectrophotometer methods. Acetic acid, tris base and sodium carbonate were used to prepare stable buffers in the pH range of 3 to 12. The buffers were prepared to give a final buffer molarity of 0.01 M. Either NaOH or HCl were used for pH adjustment of the various buffers, whose ionic strength was kept constant at 0.02 by addition of NaCl.
Stock solution of mitragynine at 0.5 mg/mL was prepared in acetonitrile. Ten microliters of the stock solution was transferred into individual test tubes and diluted with 1.0 mL buffer of various pH to give a final concentration of 5 μg/mL. For absorbance spectrum analysis, 250 μL of the various pH buffer solutions spiked with drug were placed in a 96-well quartz UV-transparent microplate and immediately scanned in the range of 200–400 nm at a scanning rate of 200 nm/s in triplicates. The pKa was calculated with equation pKa = pH + log (d − dm/di − d), for basic compound, where di is the absorbance of the ionised species, d is the absorbance of the solution tested and dm is the absorbance of the neutral species.

[2] = n-octanol/water partition coefficient (logP, logD); type: physicochemical; conditions: for logD: read-out: Calculated n-octanol/water partition coefficient (logD)
Experimental: The HPLC system consisted of a Jasco delivery pump (Tokyo, Japan) equipped with autosampler connected to a Waters 2487 detector (Milford, MA, USA) coupled to Jasco Chromnav software (Version 2.0, Tokyo, Japan). Chromatographic separation was performed on a C8 Agilent Eclipse plus (4.6 mm i.d. × 250 mm, 5-μm particle size; Apple Valley, MN, USA). The HPLC-UV method was adapted from our previous study and revalidated for the present HPLC system. The method was employed to quantify mitragynine in partition coefficient, stability, dissolution and solubility studies.
Lipophilicity of mitragynine was determined by n-octanol/water partition coefficient (P) using the method described by Low et al.. The distribution coefficient (log D) was determined in a similar manner to logP but instead of using water, buffers with a specific pH (4, 7, and 9) were used.

[3] = In vitro release (dissolution) from capsules filled with mitragynine pure standard; type: physicochemical; conditions: up to 2 h, capsule, basket method, 50 rpm, 37 °C
Experimental: Hard shell gelatin capsules filled with mitragynine pure standard were used in the in vitro dissolution study. In order to characterize the release of mitragynine, drug release profile was generated, in which mitragynine release values were determined as a function of time. The US pharmacopoeia I (basket) method was used for the in vitro dissolution study. SGF (pH 1.2) and SIF (pH 6.8) were prepared without enzymes. These media were used for the dissolution study, respectively. The capsule filled with mitragyine was introduced into 500 mL of dissolution medium. The capsule was agitated at 50 rpm at 37 °C. An aliquot (1 mL) of sample was withdrawn at predetermined time intervals of 5, 10, 15, 30, 40, 60, 90 and 120 min after onset of the dissolution. The samples were filtered through 0.45 um PTFE syringe filters, diluted with ACN (1:1) and the drug concentration was determined by the validated RP-HPLC-UV method. Samples were analyzed along with QC samples.

[4] = rats, cited from earlier work
rats [5] = test system: rats; set-up: method as in Macko et al, 15; conditions: mitragynine salt solution, ref Macko et al, 15; cited from earlier work
rodents = test system: rodents; set-up: method as in PMID 4626477; conditions: cited from earlier work
rats [6] = test system: rats; set-up: method as in PMID 25262913; conditions: cited from earlier work
[7] = Stability in simulated gastric fluid (SGF, with enzymes); conditions: for Concentration Found in SGF: SGF pH ~1.2 with pepsin, 37 °C

## CC[C@@H]1CN2CCc3c([nH]c4cccc(OC)c34)[C@@H]2C[C@@H]1/C(=C\OC)C(=O)OC [mitragynine]
[1]; Microplate Spectrophotometer, Day 1, read-out: pKa, interday repeatability
  pKa: 8.18
[1]; Microplate Spectrophotometer, Day 2, read-out: pKa, interday repeatability
  pKa: 8.1
[1]; Microplate Spectrophotometer, Day 3, read-out: pKa, interday repeatability
  pKa: 8.12
[1]; pH 7.55, target pH 7.6, actual pH 7.55, 5 µg/mL, 248 nm, read-out: pKa
  pKa: 8.09
[1]; pH 7.6, microplate method, mean over pH 7.6-9.0, read-out: pKa (Mean ± SD)
  pKa: 8.08 ± 0.04
[1]; pH 7.76, target pH 7.8, actual pH 7.76, 5 µg/mL, 248 nm, read-out: pKa
  pKa: 8.11
[1]; pH 7.94, target pH 8.0, actual pH 7.94, 5 µg/mL, 248 nm, read-out: pKa
  pKa: 8.03
[1]; pH 8.15, target pH 8.2, actual pH 8.15, 5 µg/mL, 248 nm, read-out: pKa
  pKa: 8.09
[1]; pH 8.32, target pH 8.4, actual pH 8.32, 5 µg/mL, 248 nm, read-out: pKa
  pKa: 8.1
[1]; pH 8.5, target pH 8.6, actual pH 8.50, 5 µg/mL, 248 nm, read-out: pKa
  pKa: 8.03
[1]; pH 8.66, target pH 8.8, actual pH 8.66, 5 µg/mL, 248 nm, read-out: pKa
  pKa: 8.15
[1]; pH 8.8, target pH 9.0, actual pH 8.80, 5 µg/mL, 248 nm, read-out: pKa
  pKa: 8.06
[2]; n-octanol/buffer pH 4, pH 4
  logD: 0.78
[2]; n-octanol/buffer pH 7, pH 7
  logD: 1.73
[2]; n-octanol/buffer pH 9, pH 9
  logD: 1.56
[2]; n-octanol/water, read-out: Calculated n-octanol/water partition coefficient (logP)
  logP: 1.7
[2]; octanol / buffer pH 4
  Mitragynine Content in buffer layer: 2.98 µg/mL
  Mitragynine Content in octanol layer: 17.97 µg/mL
[2]; octanol / buffer pH 7
  Mitragynine Content in buffer layer: 0.38 µg/mL
  Mitragynine Content in octanol layer: 20.54 µg/mL
[2]; octanol / buffer pH 9
  Mitragynine Content in buffer layer: 0.51 µg/mL
  Mitragynine Content in octanol layer: 18.45 µg/mL
[2]; octanol / water
  Mitragynine Content in aqueous layer: 0.42 µg/mL
  Mitragynine Content in octanol layer: 20.74 µg/mL
[3]; SGF pH 1.2 without enzymes
  drug released (dissolution): 80%
[3]; SIF pH 6.8 without enzymes
  drug released (dissolution): 22%
[4]; oral dose 20–50 mg/kg
  Cmax: 400 to 2300 ng/mL
  half-life: 3.8 to 9.4 h
[4]
  absolute oral bioavailability: ≈ 3%
Rats [5]
  dose up to which no adverse reactions were reported: 806 mg/kg
rodents
  dose levels with no toxicity: 800 to 900 mg/kg
Rats [6]; i.p. in Tween 80, high (30 mg/kg) and moderate (10 mg/kg) doses
  addictive potential effects: observed
Rats [6]; i.p. in Tween 80, mild (5 mg/kg) and low (1 mg/kg) doses
  addictive potential effects: absent
[7]; 0 min
  Concentration Found in SGF: 18720 ± 50 ng/mL
[7]; 10 min
  RD (relative difference vs time 0) in SGF: −0.21%
  Concentration Found in SGF: 18680 ± 230 ng/mL
[7]; 20 min
  RD (relative difference vs time 0) in SGF: −20.00%
  Concentration Found in SGF: 14980 ± 880 ng/mL
[7]; 30 min
  RD (relative difference vs time 0) in SGF: −22.5%
  Concentration Found in SGF: 14540 ± 580 ng/mL
[7]; 40 min
  Concentration Found in SGF: 14190 ± 370 ng/mL
[7]; 50 min
  RD (relative difference vs time 0) in SGF: −24.19%
  Concentration Found in SGF: 14110 ± 220 ng/mL
[7]; 60 min
  RD (relative difference vs time 0) in SGF: −25.53%
  Concentration Found in SGF: 13940 ± 200 ng/mL
[7]; SGF pH ≈ 1.2, 37 °C
  stability in SGF (in words): not stable
[7]; from the 20 min time point onwards
  relative deviation / drug loss in SGF: greater than 20%
